Consider 37 compounds from ChEMBL document CHEMBL4483862, “Open-source discovery of chemical leads for next-generation chemoprotective antimalarials” (2018).

Usually IC50 stands for the concentration needed to halve the response being measured. By IC90 is commonly meant the concentration needed for an effect of 90%.

The structures appear in SMILES notation.

The assay deals with Plasmodium berghei. The assay can be described thus: Luciferase/luciferin-expressing antifolate-resistant parasites were used to infect a culture of HepG2 cells that were pre-incubated with compounds. Infected hepatocytes emit light due to the luciferase reaction. Assay results are presented as the percent inhibition of light emission compared to control. […]. The format is functional. Conditions: sporozoite; for IC90: read-out: LUCIFERASE INFECTION ASSAY - IC90.

[1] abbreviates: read-out: LUCIFERASE INFECTION ASSAY - IC50.

With `O=C1OC(C23CC4CC(CC(C4)C2)C3)=N/C1=C\c1ccc(Cl)c([N+](=O)[O-])c1`, the IC90 was greater than 10 µM. The IC50 under setting [1] is greater than 10 µM.
Take `Cc1ccccc1-c1noc(CN(C2CCCc3ccccc32)S(C)(=O)=O)n1` (centres undefined): the IC90 was greater than 8.3 µM. The IC50 (HEPG2TOX_HILL_SLOPE 2, HEPG2TOX_R_SQUARED 0.927, PBLUC_HILL_SLOPE 1.37, PBLUC_R_SQUARED 0.678, read-out: LUCIFERASE INFECTION ASSAY - IC50) amounted to 1.93 µM.
As for `N=C1N/C(=N/NC(=O)c2ccc(CN3C(=O)c4cccc5cccc3c45)cc2)c2ccccc21`, the IC90 is greater than 10 µM. Moreover, the IC50 (HEPG2TOX_HILL_SLOPE 8, HEPG2TOX_R_SQUARED 0.371, PBLUC_HILL_SLOPE 2.14, PBLUC_R_SQUARED 0.479, read-out: LUCIFERASE INFECTION ASSAY - IC50) turned out to be 4.48 µM.
For the compound `CC(C)CC(NC(=O)Cc1ccsc1)C(=O)N/N=C/c1cccs1` (centres undefined), the IC90 was greater than 9.08 µM. The 50% inhibitory concentration (IC50) under setting [1] is greater than 9.08 µM.
On to `N#Cc1ccc(NC(=O)c2cnn(Cc3ccccc3Cl)c2)cc1`, for which the concentration for an effect of 90% (IC90) is greater than 10 µM. Moreover, under setting [1], the 50% inhibitory concentration (IC50) was greater than 10 µM.
Regarding `COCCNc1ccnc2c(-c3ccccc3Oc3ccccc3)cnn12`, the IC90 is greater than 9.16 µM. Also, the concentration for half-maximal inhibition (IC50) (FFLUC_HILL_SLOPE 3.47, FFLUC_R_SQUARED 0.0365, PBLUC_HILL_SLOPE 0.975, PBLUC_R_SQUARED 0.706, read-out: LUCIFERASE INFECTION ASSAY - IC50) turned out to be 3.91 µM.
For `C=CCn1c(SCc2cc([N+](=O)[O-])cc3c2OCOC3)nc2cc(C(=O)O)ccc2c1=O`, the IC90 was found to be 6.97 µM. The IC50 under setting [1] turned out to be 1.82 µM.
For the compound `COc1cncc(-c2cnc3c(Nc4cc(OC)c(OC)c(OC)c4)nccn23)c1`, the 90% effect concentration (IC90) was determined as 0.297 µM. For the setting “HEPG2TOX_HILL_SLOPE 0.708, HEPG2TOX_R_SQUARED 0.654, PBLUC_HILL_SLOPE 2.45, PBLUC_R_SQUARED 0.956, read-out: LUCIFERASE INFECTION ASSAY - IC50”, the IC50 is 0.121 µM.
For `Cc1nn(CC(C)C)c(Cl)c1C(=O)Nc1nc(-c2ccccn2)cs1`, the IC90 was determined as 3.35 µM. Moreover, the IC50 (HEPG2TOX_HILL_SLOPE 0.847, HEPG2TOX_R_SQUARED 0.93, PBLUC_HILL_SLOPE 12, PBLUC_R_SQUARED 0.706, read-out: LUCIFERASE INFECTION ASSAY - IC50) worked out at 2.79 µM.
Consider `Clc1ccccc1Oc1ccc(Nc2ccc3nnnn3n2)cc1`, for which the IC90 was greater than 10 µM. Under setting [1], the IC50 is greater than 10 µM.
On to `CC(=O)c1cccc(-c2cnc3ccc(Cc4ccc(F)cc4)nn23)c1`, for which the 90% effect concentration (IC90) came out at 5.55 µM. For the same compound, the concentration for half-maximal inhibition (IC50) (HEPG2TOX_HILL_SLOPE 0.753, HEPG2TOX_R_SQUARED 0.0911, PBLUC_HILL_SLOPE 6.85, PBLUC_R_SQUARED 0.304, read-out: LUCIFERASE INFECTION ASSAY - IC50) worked out at 4.02 µM.
`O=C(CCCNC(=O)c1ccsc1)NNC(=O)c1ccccc1O`: the IC90 was greater than 10 µM. Also, where the note is “PBLUC_HILL_SLOPE 9.95, PBLUC_R_SQUARED 0.0276, read-out: LUCIFERASE INFECTION ASSAY - IC50”, the IC50 is greater than 10 µM.
Turning to `CNC(=O)c1ccc(/C=C/C(=O)N(c2ccc(C)c(F)c2)c2nc3ccccc3s2)cc1`, the IC90 came to 8.92 µM. Also, the IC50 (FFLUC_HILL_SLOPE 1.49, FFLUC_R_SQUARED 0.0757, PBLUC_HILL_SLOPE 4.44, PBLUC_R_SQUARED 0.348, read-out: LUCIFERASE INFECTION ASSAY - IC50) turned out to be 5.44 µM.
For `Cc1ccc(CC2CC(=O)N(C3CCCCC3)C2=O)cc1` (centres undefined), the IC90 was greater than 11.6 µM. Moreover, the IC50 under setting [1] is greater than 11.6 µM.
For the compound `COc1ccc(C(=O)Nc2ccc3nc(-c4cc(OC)c(OC)c(OC)c4)nn3c2)cc1OC`, the IC90 is 4.55 µM. For the same compound, the IC50 (PBLUC_HILL_SLOPE 1.61, PBLUC_R_SQUARED 0.589, read-out: LUCIFERASE INFECTION ASSAY - IC50) stood at 1.17 µM.
On to `O=C(Nc1nc2ccc(SC(F)F)cc2s1)c1ccc(Cl)nc1`, for which the IC90 is greater than 10 µM. For the setting “HEPG2TOX_HILL_SLOPE 12.1, HEPG2TOX_R_SQUARED 0.0104, read-out: LUCIFERASE INFECTION ASSAY - IC50”, the IC50 was greater than 10 µM.
Turning to `O=C(CCCc1cccs1)Nc1nnc[nH]1`, the IC90 is greater than 10 µM. The IC50 (PBLUC_HILL_SLOPE 0.436, PBLUC_R_SQUARED 0.0408, read-out: LUCIFERASE INFECTION ASSAY - IC50) is greater than 10 µM.
Regarding `N#Cc1ccsc1NC(=O)CN1CCN(CC(=O)Nc2ccc(Cl)c(C(F)(F)F)c2)CC1`, the IC90 is greater than 10 µM. In addition, the IC50 (PBLUC_HILL_SLOPE 1.73, PBLUC_R_SQUARED 0.28, read-out: LUCIFERASE INFECTION ASSAY - IC50) is 5.03 µM.
`CC(OC(=O)c1c(NC(=O)C2CCCCC2)sc2c1CCC2)C(=O)Nc1[nH]cnc2ncnc1-2` (centres undefined): the IC90 was greater than 10 µM. The IC50 (HEPG2TOX_HILL_SLOPE 8.29, HEPG2TOX_R_SQUARED 0.38, read-out: LUCIFERASE INFECTION ASSAY - IC50) was greater than 10 µM.
Take `CCn1nnnc1Sc1ncnc2scc(-c3ccc(C)cc3)c12`: the IC90 is greater than 10 µM. Moreover, the IC50 under setting [1] was greater than 10 µM.
With `CCCNC(=O)c1c(NC(=O)c2cccc(C(F)(F)F)c2)nc2ccccn12`, the IC90 was determined as 0.786 µM. The IC50 under setting [1] was 0.399 µM.
In the case of `O=[N+]([O-])c1cc(C(F)(F)F)ccc1Sc1nnc(-c2ccc(Cl)cc2)[nH]1`, the IC90 was greater than 8.23 µM. For the same compound, where the note is “FFLUC_HILL_SLOPE 0.154, FFLUC_R_SQUARED 0.106, read-out: LUCIFERASE INFECTION ASSAY - IC50”, the IC50 is greater than 8.23 µM.
Consider `Fc1cccc(-c2nc3ccnc(NCCc4ccccn4)c3[nH]2)c1`, for which the concentration for an effect of 90% (IC90) stood at 4.02 µM. The IC50 (HEPG2TOX_HILL_SLOPE 2.04, HEPG2TOX_R_SQUARED 0.803, PBLUC_HILL_SLOPE 12.8, PBLUC_R_SQUARED 0.152, read-out: LUCIFERASE INFECTION ASSAY - IC50) worked out at 3.38 µM.
Consider `O=C(CN1CCN(S(=O)(=O)c2cccs2)CC1)Nc1ccccc1C(=O)c1ccccc1`, for which the IC90 is greater than 10 µM. Also, under “PBLUC_HILL_SLOPE 1.98, PBLUC_R_SQUARED 0.361, read-out: LUCIFERASE INFECTION ASSAY - IC50”, the IC50 is 5.33 µM.
Consider `Cn1c(N)c(C(=O)COC(=O)c2ccccc2-c2nc3ccccc3s2)c(=O)n(C)c1=O`, for which the IC90 was greater than 10 µM. For the setting “PBLUC_HILL_SLOPE 14.7, PBLUC_R_SQUARED 0.767, read-out: LUCIFERASE INFECTION ASSAY - IC50”, the IC50 came to 9.26 µM.
Consider `Cc1nc(-c2ccc(C(C)Nc3cnn(-c4ccccc4)c(=O)c3Cl)cc2)cs1` (centres undefined), for which the IC90 was determined as 5.07 µM. Further, the IC50 (HEPG2TOX_HILL_SLOPE 2.7, HEPG2TOX_R_SQUARED 0.839, PBLUC_HILL_SLOPE 8.17, PBLUC_R_SQUARED 0.802, read-out: LUCIFERASE INFECTION ASSAY - IC50) worked out at 3.88 µM.
On to `OCCNCCNCc1c(OCc2ccccc2F)ccc2ccccc12`, for which the IC90 is greater than 8.96 µM. For the same compound, the half-maximal inhibitory concentration (IC50) under setting [1] was greater than 8.96 µM.
Consider `CCN(CC)c1ccc(NC(=O)c2ccc(Br)o2)cc1S(=O)(=O)Nc1ccccc1OC`, for which the IC90 amounted to 4.43 µM. Further, the IC50 (HEPG2TOX_HILL_SLOPE 1.78, HEPG2TOX_R_SQUARED 0.619, PBLUC_HILL_SLOPE 2.27, PBLUC_R_SQUARED 0.536, read-out: LUCIFERASE INFECTION ASSAY - IC50) was 1.68 µM.
Consider `CC(C)c1ccc(NC(=O)Nc2ccc3nc(-c4ccco4)nn3c2)cc1`, for which the IC90 is greater than 10 µM. Besides, the half-maximal inhibitory concentration (IC50) under setting [1] is greater than 10 µM.
`COc1cc(CNC(=O)Nc2nc3ccccc3s2)cc(OC)c1OC`: the IC90 was greater than 10 µM. The IC50 (HEPG2TOX_HILL_SLOPE 1.53, HEPG2TOX_R_SQUARED 0.847, PBLUC_HILL_SLOPE 0.688, PBLUC_R_SQUARED 0.648, read-out: LUCIFERASE INFECTION ASSAY - IC50) worked out at 0.692 µM.
As to `CCN(CC)S(=O)(=O)c1ccc(C(C)NC(=O)c2nn(CC)c(=O)c3ccccc23)cc1` (centres undefined), the IC90 worked out at 4.01 µM. For the same compound, the IC50 (PBLUC_HILL_SLOPE 3.22, PBLUC_R_SQUARED 0.606, read-out: LUCIFERASE INFECTION ASSAY - IC50) stood at 2.02 µM.
As for `Cc1cc2c(cc1C)C(NCCc1ccccc1)=NC(C)(C)C2`, the concentration for an effect of 90% (IC90) was 5.1 µM. In addition, for the setting “HEPG2TOX_HILL_SLOPE 5.51, HEPG2TOX_R_SQUARED 0.604, PBLUC_HILL_SLOPE 9.09, PBLUC_R_SQUARED 0.396, read-out: LUCIFERASE INFECTION ASSAY - IC50”, the IC50 came to 4 µM.
As for `Cc1cn2c(/C=c3\s/c(=C\C(=O)c4ccccc4C)n(C)c3=O)c(C)nc2s1`, the IC90 stood at 0.619 µM. In addition, the IC50 (HEPG2TOX_HILL_SLOPE 2.41, HEPG2TOX_R_SQUARED 0.966, PBLUC_HILL_SLOPE 72.2, PBLUC_R_SQUARED 0.61, read-out: LUCIFERASE INFECTION ASSAY - IC50) was 0.6 µM.
Take `Cc1ccccc1S(=O)(=O)Nc1nccnc1N1CCN(S(=O)(=O)c2cccc3ccccc23)CC1`: the IC90 was greater than 6.3 µM. The IC50 under setting [1] was greater than 6.3 µM.
Turning to `CC(=O)c1cccc(-c2cnc3cnc(-c4ccc(CO)cc4)cn23)c1`, the IC90 is greater than 9.61 µM. Further, the half-inhibitory concentration (IC50) (PBLUC_HILL_SLOPE 6.05, PBLUC_R_SQUARED 0.635, read-out: LUCIFERASE INFECTION ASSAY - IC50) came to 7.62 µM.
Consider `Cc1nn(-c2ccccc2)c(C)c1C(=O)ONC(=N)c1ccc(C(C)(C)C)cc1`, for which the IC90 was determined as 3.03 µM. Where the note is “HEPG2TOX_HILL_SLOPE 14.9, HEPG2TOX_R_SQUARED 0.924, PBLUC_HILL_SLOPE 26.9, PBLUC_R_SQUARED 0.601, read-out: LUCIFERASE INFECTION ASSAY - IC50”, the half-inhibitory concentration (IC50) stood at 2.79 µM.
For the compound `O=C(Nc1cccc(Cl)c1)C1=COC2=NC(=O)N(Cc3cccc(Cl)c3)CCN12`, the IC90 was greater than 10 µM. In addition, the IC50 (HEPG2TOX_HILL_SLOPE 3.25, HEPG2TOX_R_SQUARED 0.784, PBLUC_HILL_SLOPE 3.78, PBLUC_R_SQUARED 0.178, read-out: LUCIFERASE INFECTION ASSAY - IC50) amounted to 6.88 µM.
